Assay results reported in patent US8796256B2 (Janssen Pharmaceutica NV, priority 2010, dated 2014).
pEC50: −log10 of the molar value.

What follows are compounds tested against T1, ERR1 (also known as ERR-α or ERR-1) (Homo sapiens, UniProt P11474) (assay: TR-FRET assay (disruption of co-activator peptide binding to ERR1 LBD)). Settings: 6 nM 6His-ERR1LBD, 6 nM GST-SRC-2 peptide; average of 3 independent experiments.
T1 sequence (P11474 193-421 limits assumed): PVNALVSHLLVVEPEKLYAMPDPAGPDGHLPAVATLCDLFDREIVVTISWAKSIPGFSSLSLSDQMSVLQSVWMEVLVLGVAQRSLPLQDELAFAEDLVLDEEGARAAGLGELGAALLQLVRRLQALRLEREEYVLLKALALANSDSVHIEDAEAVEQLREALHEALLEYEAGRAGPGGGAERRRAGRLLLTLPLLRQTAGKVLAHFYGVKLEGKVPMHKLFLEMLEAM
Assay type: biochemical
Outline: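 Homogeneous TR-FRET measuring displacement of GST-hSRC2 co-activator peptide (6 nM) from His-tagged ERR1 LBD (6 nM), detected with α-GST Eu cryptate (30 nM) and α-His-XL665 (7.5 nM). Buffer 25 mM Tris pH 8, 2.5 mM Hepes, 20 mM KCl, 1 mM DTT, 0.05 mg/mL delipidated BSA; equilibration 4-18 h at 25° C. Hyperbolic dose-response fit, mean of 3 experiments.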

Structure (SMILES)	pEC50
O=C1S/C(=C\c2ccc3c(cnn3Cc3ccc(Cl)cc3C(F)(F)F)c2)C(=O)N1C[C@H]1CN2CCOC[C@H]2CO1 [Compound 204, (5Z)-5-({1-[4-Chloro-2-(trifluoromethyl)benzyl]-1H-indazol-5-yl}methylidene)-3-[(3R,9aS)-hexahydro-1H-[1,4]oxazino[3,4-c] [1,4]oxazin-3-ylmethyl]-1,3-thiazolidine-2,4-dione]	7.34
O=C1S/C(=C\c2ccc3c(cnn3Cc3ccc(Cl)cc3C(F)(F)F)c2)C(=O)N1C[C@@H]1CN2CCOC[C@H]2CO1 [Compound 205, (5Z)-5-({1-[4-Chloro-2-(trifluoromethyl)benzyl]-1H-indazol-5-yl}methylidene)-3-[(3S,9aS)-hexahydro-1H-[1,4]oxazino[3,4-c] [1,4]oxazin-3-ylmethyl]-1,3-thiazolidine-2,4-dione]	7.66
O=C1S/C(=C\c2ccc3c(cnn3Cc3ccc(Cl)cc3C(F)(F)F)c2)C(=O)N1C[C@@H]1CCCN2CCCC[C@H]12 [Compound 206, (5Z)-5-({1-[4-Chloro-2-(trifluoromethyl)benzyl]-1H-indazol-5-yl}methylidene)-3-[(1S,9aR)-octahydro-2H-quinolizin-1-ylmethyl]-1,3-thiazolidine-2,4-dione]	7.01
O=C1S/C(=C\c2ccc3c(cnn3Cc3ccc(C(F)(F)F)cc3C(F)(F)F)c2)C(=O)N1C[C@@H]1CCCN2CCCC[C@H]12 [Compound 207, (5Z)-5-({1-[2,4-Bis(trifluoromethyl)benzyl]-1H-indazol-5-yl}methylidene)-3-[(1S,9aR)-octahydro-2H-quinolizin-1-ylmethyl]-1,3-thiazolidine-2,4-dione]	6.72
O=C1S/C(=C\c2ccc3c(cnn3Cc3ccc(C(F)(F)F)cc3C(F)(F)F)c2)C(=O)N1C[C@H]1CN2CCC[C@H]2CO1 [Compound 208, (5Z)-5-({1-[2,4-Bis(trifluoromethyl)benzyl]-1H-indazol-5-yl}methylidene)-3-[(3R,8aS)-hexahydro-1H-pyrrolo[2,1-c][1,4]oxazin-3-ylmethyl]-1,3-thiazolidine-2,4-dione]	6.87
COC(=O)C(C1CCOCC1)N1C(=O)S/C(=C\c2ccc3c(cnn3Cc3ccc(Cl)cc3C(F)(F)F)c2)C1=O (stereo not drawn) [Compound 209, Methyl [(5Z)-5-({1-[4-chloro-2-(trifluoromethyl)benzyl]-1H-indazol-5-yl}methylidene)-2,4-dioxo-1,3-thiazolidin-3-yl](tetrahydro-2H-pyran-4-yl)acetate]	7.06
COC(=O)[C@H](COC(C)(C)C)N1C(=O)S/C(=C\c2ccc3c(cnn3Cc3ccc(Cl)cc3C(F)(F)F)c2)C1=O [Compound 210, Methyl (2S)-3-tert-butoxy-2-[(5Z)-5-({1-[4-chloro-2-(trifluoromethyl)benzyl]-1H-indazol-5-yl}methylidene)-2,4-dioxo-1,3-thiazolidin-3-yl]propanoate]	6.59
CCOC(=O)C(Cc1ccccn1)N1C(=O)S/C(=C\c2ccc3c(cnn3Cc3ccc(Cl)cc3C(F)(F)F)c2)C1=O (stereo not drawn) [Compound 211, Ethyl 2-[(5Z)-5-({1-[4-chloro-2-(trifluoromethyl)benzyl]-1H-indazol-5-yl}methylidene)-2,4-dioxo-1,3-thiazolidin-3-yl]-3-pyridin-2-ylpropanoate]	7.04
COC(=O)[C@@H](COC(C)(C)C)N1C(=O)S/C(=C\c2ccc3c(cnn3Cc3ccc(Cl)cc3C(F)(F)F)c2)C1=O [Compound 212, Methyl (2R)-3-tert-butoxy-2-[(5Z)-5-({1-[4-chloro-2-(trifluoromethyl)benzyl]-1H-indazol-5-yl}methylidene)-2,4-dioxo-1,3-thiazolidin-3-yl]propanoate]	6.60
COC(=O)C1(N2C(=O)S/C(=C\c3ccc4c(cnn4Cc4ccc(Cl)cc4C(F)(F)F)c3)C2=O)CCN(C)CC1 [Compound 213, Methyl 4-[(5Z)-5-({1-[4-chloro-2-(trifluoromethyl)benzyl]-1H-indazol-5-yl}methylidene)-2,4-dioxo-1,3-thiazolidin-3-yl]-1-methylpiperidine-4-carboxylate]	7.55
COC(=O)C(Cc1cn(C)cn1)N1C(=O)S/C(=C\c2ccc3c(cnn3Cc3ccc(Cl)cc3C(F)(F)F)c2)C1=O (stereo not drawn) [Compound 214, Methyl 2-[(5Z)-5-({1-[4-chloro-2-(trifluoromethyl)benzyl]-1H-indazol-5-yl}methylidene)-2,4-dioxo-1,3-thiazolidin-3-yl]-3-(1-methyl-1H-imidazol-4-yl)propanoate]	7.36
COC(=O)C(C1CCN(C(=O)OC(C)(C)C)CC1)N1C(=O)S/C(=C\c2ccc3c(cnn3Cc3ccc(Cl)cc3C(F)(F)F)c2)C1=O (stereo not drawn) [Compound 215, tert-Butyl 4-{1-[(5Z)-5-({1-[4-chloro-2-(trifluoromethyl)benzyl]-1H-indazol-5-yl}methylidene)-2,4-dioxo-1,3-thiazolidin-3-yl]-2-methoxy-2-oxoethyl}piperidine-1-carboxylate]	7.21
O=C(O)C(Cc1ccccn1)N1C(=O)S/C(=C\c2ccc3c(cnn3Cc3ccc(Cl)cc3C(F)(F)F)c2)C1=O (stereo not drawn) [Compound 216, 2-[(5Z)-5-({1-[4-Chloro-2-(trifluoromethyl)benzyl]-1H-indazol-5-yl}methylidene)-2,4-dioxo-1,3-thiazolidin-3-yl]-3-pyridin-2-ylpropanoic acid]	7.48
COC(=O)C(Cc1cccnc1)N1C(=O)S/C(=C\c2ccc3c(cnn3Cc3ccc(Cl)cc3C(F)(F)F)c2)C1=O (stereo not drawn) [Compound 217, Methyl 2-[(5Z)-5-({1-[4-chloro-2-(trifluoromethyl)benzyl]-1H-indazol-5-yl}methylidene)-2,4-dioxo-1,3-thiazilidin-3-yl]-3-pyridin-3-ylpropanoate]	7.39
O=C1S/C(=C\c2ccc3c(cnn3Cc3ccc(Cl)cc3C(F)(F)F)c2)C(=O)N1C1(C(=O)O)CCCCC1 [Compound 218, 1-[(5Z)-5-({1-[4-Chloro-2-(trifluoromethyl)benzyl]-1H-indazol-5-yl}methylidene)-2,4-dioxo-1,3-thiazolidin-3-yl]cyclohexanecarboxylic acid]	7.06
O=C(O)C(C1CCOCC1)N1C(=O)S/C(=C\c2ccc3c(cnn3Cc3ccc(Cl)cc3C(F)(F)F)c2)C1=O (stereo not drawn) [Compound 219, [(5Z)-5-({1-[4-Chloro-2-(trifluoromethyl)benzyl]-1H-indazol-5-yl}methylidene)-2,4-dioxo-1,3-thiazolidin-3-yl](tetrahydro-2H-pyran-4-yl)acetic acid]	7.38
CN1CCC(C(=O)O)(N2C(=O)S/C(=C\c3ccc4c(cnn4Cc4ccc(Cl)cc4C(F)(F)F)c3)C2=O)CC1 [Compound 220, 4-[(5Z)-5-({1-[4-Chloro-2-(trifluoromethyl)benzyl]-1H-indazol-5-yl}methylidene)-2,4-dioxo-1,3-thiazolidin-3-yl]-1-methylpiperidine-4-carboxylic acid]	7.13
O=C(O)[C@H](CO)N1C(=O)S/C(=C\c2ccc3c(cnn3Cc3ccc(Cl)cc3C(F)(F)F)c2)C1=O [Compound 221, (2S)-2-[(5Z)-5-({1-[4-Chloro-2-(trifluoromethyl)benzyl]-1H-indazol-5-yl}methylidene)-2,4-dioxo-1,3-thiazolidin-3-yl]-3-hydroxypropanoic acid]	7.21
O=C(O)[C@@H](CO)N1C(=O)S/C(=C\c2ccc3c(cnn3Cc3ccc(Cl)cc3C(F)(F)F)c2)C1=O [Compound 222, (2R)-2-[(5Z)-5-({1-[4-Chloro-2-(trifluoromethyl)benzyl]-1H-indazol-5-yl}methylidene)-2,4-dioxo-1,3-thiazolidin-3-yl]-3-hydroxypropanoic acid]	7.24
Cn1cnc(CC(C(=O)O)N2C(=O)S/C(=C\c3ccc4c(cnn4Cc4ccc(Cl)cc4C(F)(F)F)c3)C2=O)c1 (stereo not drawn) [Compound 223, 2-[(5Z)-5-({1-[4-Chloro-2-(trifluoromethyl)benzyl]-1H-indazol-5-yl}methylidene)-2,4-dioxo-1,3-thiazolidin-3-yl]-3-(1-methyl-1H-imidazol-4-yl)propanoicacid]	7.26
O=C(O)C(C1CCNCC1)N1C(=O)S/C(=C\c2ccc3c(cnn3Cc3ccc(Cl)cc3C(F)(F)F)c2)C1=O (stereo not drawn) [Compound 224, [(5Z)-5-({1-[4-Chloro-2-(trifluoromethyl)benzyl]-1H-indazol-5-yl}methylidene)-2,4-dioxo-1,3-thiazolidin-3-yl](piperidin-4-yl)acetic acid]	7.66
O=C(O)C(Cc1cccnc1)N1C(=O)S/C(=C\c2ccc3c(cnn3Cc3ccc(Cl)cc3C(F)(F)F)c2)C1=O (stereo not drawn) [Compound 225, 2-[(5Z)-5-({1-[4-Chloro-2-(trifluoromethyl)benzyl]-1H-indazol-5-yl}methylidene)-2,4-dioxo-1,3-thiazolidin-3-yl]-3-pyridin-3-ylpropanoic acid]	7.49
COC(=O)C1(N2C(=O)S/C(=C\c3ccc4c(cnn4Cc4ccc(Cl)cc4C(F)(F)F)c3)C2=O)CCOCC1 [Compound 226, Methyl 4-[(5Z)-5-({1-[4-chloro-2-(trifluoromethyl)benzyl]-1H-indazol-5-yl}methylidene)-2,4-dioxo-1,3-thiazolidin-3-yl]tetrahydro-2H-pyran-4-carboxylate]	7.52
O=C1S/C(=C\c2ccc3c(cnn3Cc3ccc(Cl)cc3C(F)(F)F)c2)C(=O)N1C1(C(=O)O)CCOCC1 [Compound 227, 4-[(5Z)-5-({1-[4-Chloro-2-(trifluoromethyl)benzyl]-1H-indazol-5-yl}methylidene)-2,4-dioxo-1,3-thiazolidin-3-yl]etrahydro-2H-pyran-4-carboxylic acid]	7.28
